Where a name gives a salt, the structure may show the parent alone.
How the values were obtained:
human mGluR3 (hmGluR3) = biological target: T1, human mGluR3 (hmGluR3) (Homo sapiens, UniProt Q14832); assay: Human mGluR3 positive allosteric modulator evaluation using Ca++ functional assay; type: cell-based; details: hmGluR3 transiently over-expressed in HEK-293 cells; stimulated by EC50 glutamate concentration; intracellular Ca2+ (Fluo4AM, FLIPR Tetra)
T1 construct: expressed in transfected cells; host or cells: HEK-293 cells, transient co-transfection by electroporation
Outline: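 HEK-293 cells transiently co-expressing hmGluR3, a chimeric G protein and two glutamate transporters; Fluo4 calcium read on FLIPR. Compound alone for 10 min (agonist), then EC50 glutamate for 3 min (PAM); 20-point curves gave EC50, duplicate, two independent runs.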

T1 sequence (Q14832 23-879): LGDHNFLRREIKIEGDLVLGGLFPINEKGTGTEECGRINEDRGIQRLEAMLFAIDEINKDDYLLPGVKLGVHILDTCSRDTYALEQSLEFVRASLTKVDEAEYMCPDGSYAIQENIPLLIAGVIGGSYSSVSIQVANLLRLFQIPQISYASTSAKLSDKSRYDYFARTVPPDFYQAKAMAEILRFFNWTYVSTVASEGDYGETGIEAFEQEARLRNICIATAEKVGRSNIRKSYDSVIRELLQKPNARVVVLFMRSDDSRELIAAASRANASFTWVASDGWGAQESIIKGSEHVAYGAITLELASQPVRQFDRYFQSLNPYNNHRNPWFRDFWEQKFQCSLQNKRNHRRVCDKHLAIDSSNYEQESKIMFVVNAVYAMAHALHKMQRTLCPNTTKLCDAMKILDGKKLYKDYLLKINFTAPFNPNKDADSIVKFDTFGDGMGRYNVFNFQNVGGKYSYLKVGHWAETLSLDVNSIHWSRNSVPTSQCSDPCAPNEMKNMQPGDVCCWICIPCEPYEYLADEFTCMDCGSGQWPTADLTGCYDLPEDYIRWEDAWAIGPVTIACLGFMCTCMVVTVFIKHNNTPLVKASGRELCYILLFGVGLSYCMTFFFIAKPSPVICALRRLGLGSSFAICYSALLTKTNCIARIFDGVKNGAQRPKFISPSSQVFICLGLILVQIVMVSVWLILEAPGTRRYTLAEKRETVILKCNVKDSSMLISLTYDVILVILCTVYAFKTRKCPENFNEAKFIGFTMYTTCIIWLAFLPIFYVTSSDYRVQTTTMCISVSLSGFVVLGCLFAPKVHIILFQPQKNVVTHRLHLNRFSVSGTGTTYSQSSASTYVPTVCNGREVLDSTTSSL

| melting point | EC50 (human mGluR3 (hmGluR3)) | Compound |
| --- | --- | --- |
| 230 to 250 °C | – | Cc1ncccc1-c1ccc2c(c1)-n1cccc1C(=O)N(C)C2(C)C (as salt: hydrochloride) [Example 223, 5,6,6-Trimethyl-9-(2-methyl-pyridin-3-yl)-5,6-dihydro-benzo[f]pyrrolo[1,2-a][1,4]diazepin-4-one] |
| 130 to 138 °C | 100 to 1000 nM | CN1C(=O)c2cccn2-c2cc(C=CC#N)ccc2C12CC2 (mixture of isomers) [Example 52, 5-Methyl-9-actylonitrile-spiro[benzo[f]pyrrolo[1,2-a][1,4]diazepine-6,1′-cyclopropan]-4(5H)-one] |
| 200 to 210 °C | 100 to 1000 nM | Cc1ncccc1-c1ccc2c(c1)-n1cccc1C(=O)N(C)C21CC1 [Example 20, 5-Methyl-9-(2-methyl-pyridin-3-yl)-spiro[benzo[f]pyrrolo[1,2-a][1,4]diazepine-6,1′-cyclopropan]-4(5H)-one] |
| 138 to 142 °C | > 1000 nM | COCN1C(=O)c2cccn2-c2cc(-c3cccnc3C)ccc2C12CC2 [Example 21, 5-Methoxymethyl-9-(2-methyl-pyridin-3-yl)-spiro[benzo[f]pyrrolo[1,2-a][1,4]diazepine-6,1′-cyclopropan]-4(5H)-one] |
| 115 to 125 °C | > 1000 nM | Cc1n[nH]c(C)c1-c1ccc2c(c1)-n1cccc1C(=O)N(C)C21CC1 [Example 27, 5-Methyl-9-(3,5-dimethyl-1H-pyrazol-4-yl)-spiro[benzo[f]pyrrolo[1,2-a][1,4]diazepine-6,1′-cyclopropan]-4(5H)-one] |
| > 250 °C | > 1000 nM | CN1C(=O)c2cccn2-c2cc(-c3c[nH]nc3C(F)(F)F)ccc2C12CC2 [Example 28, 5-Methyl-9-(3-trifluoromethyl-1H-pyrazol-4-yl)-spiro[benzo[f]pyrrolo[1,2-a][1,4]diazepine-6,1′-cyclopropan]-4(5H)-one] |
| 75 to 83 °C | 100 to 1000 nM | CN1C(=O)c2cccn2-c2cc(-c3cnn(C)c3)ccc2C12CC2 [Example 29, 5-Methyl-9-(1-methyl-pyrazol-4-yl)-spiro[benzo[f]pyrrolo[1,2-a][1,4]diazepine-6,1′-cyclopropan]-4(5H)-one] |
| 214 to 220 °C | 100 to 1000 nM | CN1C(=O)c2cccn2-c2cc(-c3ccnn3C)ccc2C12CC2 [Example 30, 5-Methyl-9-(1-methyl-pyrazol-5-yl)-spiro[benzo[f]pyrrolo[1,2-a][1,4]diazepine-6,1′-cyclopropan]-4(5H)-one] |
| 171 to 176 °C | < 100 nM | CN1C(=O)c2cccn2-c2cc(-c3ccc(F)nc3)ccc2C12CC2 [Example 31, 5-Methyl-9-(6-fluoropyridin-3-yl)-spiro[benzo[f]pyrrolo[1,2-a][1,4]diazepine-6,1′-cyclopropan]-4(5H)-one] |
| 198 to 202 °C | < 100 nM | Cc1nc(F)ccc1-c1ccc2c(c1)-n1cccc1C(=O)N(C)C21CC1 [Example 32, 5-Methyl-9-(6-fluoro-2-methylpyridin-3-yl)-spiro[benzo[f]pyrrolo[1,2-a][1,4]diazepine-6,1′-cyclopropan]-4(5H)-one] |
| 158 to 162 °C | 100 to 1000 nM | CN1C(=O)c2cccn2-c2cc(-c3cccnc3F)ccc2C12CC2 [Example 33, 5-Methyl-9-(2-fluoropyridin-3-yl)-spiro[benzo[f]pyrrolo[1,2-a][1,4]diazepine-6,1′-cyclopropan]-4(5H)-one] |
| 197 to 201 °C | 100 to 1000 nM | CN1C(=O)c2cccn2-c2cc(-c3ccnc(F)c3)ccc2C12CC2 [Example 34, 5-Methyl-9-(2-fluoropyridin-4-yl)-spiro[benzo[f]pyrrolo[1,2-a][1,4]diazepine-6,1′-cyclopropan]-4(5H)-one] |
| 169 to 174 °C | 100 to 1000 nM | CN1C(=O)c2cccn2-c2cc(-c3ccnc(C(F)(F)F)c3)ccc2C12CC2 [Example 35, 5-Methyl-9-(2-trifluoromethylpyridin-4-yl)-spiro[benzo[f]pyrrolo[1,2-a][1,4]diazepine-6,1′-cyclopropan]-4(5H)-one] |
| 160 to 165 °C | 100 to 1000 nM | CN1C(=O)c2cccn2-c2cc(-c3cccnc3C(F)(F)F)ccc2C12CC2 [Example 36, 5-Methyl-9-(2-trifluoromethylpyridin-3-yl)-spiro[benzo[f]pyrrolo[1,2-a][1,4]diazepine-6,1′-cyclopropan]-4(5H)-one] |
| 67 to 78 °C | > 1000 nM | CN1C(=O)c2cccn2-c2cc(-c3cnccc3C(F)(F)F)ccc2C12CC2 [Example 37, 5-Methyl-9-(4-trifluoromethylpyridin-3-yl)-spiro[benzo[f]pyrrolo[1,2-a][1,4]diazepine-6,1′-cyclopropan]-4(5H)-one] |
| 150 to 154 °C | 100 to 1000 nM | COc1ccc(-c2ccc3c(c2)-n2cccc2C(=O)N(C)C32CC2)cc1OC [Example 39, 5-Methyl-9-(3,4-dimethoxy-phenyl)-spiro[benzo[f]pyrrolo[1,2-a][1,4]diazepine-6,1′-cyclopropan]-4(5H)-one] |

| melting point | EC50 (human mGluR3 (hmGluR3)) | Compound |
| --- | --- | --- |
| 189 to 194 °C | < 100 nM | CN1C(=O)c2cccn2-c2cc(-c3cccc(C#N)c3)ccc2C12CC2 [Example 44, 5-Methyl-9-(3-cyanophenyl)-spiro[benzo[f]pyrrolo[1,2-a][1,4]diazepine-6,1′-cyclopropan]-4(5H)-one] |
| > 250 °C | 100 to 1000 nM | CN1C(=O)c2cccn2-c2cc(-c3cccc(-c4nnn[nH]4)c3)ccc2C12CC2 [Example 45, 5-Methyl-9-(3-(1H-tetrazol-5-yl)-phenyl)-spiro[benzo[f]pyrrolo[1,2-a][1,4]diazepine-6,1′-cyclopropan]-4(5H)-one] |
| 101 to 110 °C | 100 to 1000 nM | CC(=O)N1CC=C(c2ccc3c(c2)-n2cccc2C(=O)N(C)C32CC2)CC1 [Example 48, 5-Methyl-9-(1-acetyl-1,2,3,6-tetrahydro-pyridin-4-yl)-spiro[benzo[f]pyrrolo[1,2-a][1,4]diazepine-6,1′-cyclopropan]-4(5H)-one] |
| 120 to 128 °C | > 1000 nM | Cc1ncoc1-c1ccc2c(c1)-n1cccc1C(=O)N(C)C21CC1 [Example 49, 5-Methyl-9-(4-methyl-oxazol-5-yl)-spiro[benzo[f]pyrrolo[1,2-a][1,4]diazepine-6,1′-cyclopropan]-4(5H)-one] |
| 205 to 212 °C | 100 to 1000 nM | Cc1ncsc1-c1ccc2c(c1)-n1cccc1C(=O)N(C)C21CC1 [Example 50, 5-Methyl-9-(4-methylthiazol-5-yl)-spiro[benzo[f]pyrrolo[1,2-a][1,4]diazepine-6,1′-cyclopropan]-4(5H)-one] |
| 60 to 69 °C | > 1000 nM | CN1C(=O)c2cccn2-c2cc(CC#N)ccc2C12CC2 [Example 51, 5-Methyl-9-acetonitrile-spiro[benzo[f]pyrrolo[1,2-a][1,4]diazepine-6,1′-cyclopropan]-4(5H)-one] |
| 59 to 64 °C | > 1000 nM | CN1C(=O)c2cccn2-c2cc(CCC#N)ccc2C12CC2 [Example 53, 5-Methyl-9-propionitrile-spiro[benzo[f]pyrrolo[1,2-a][1,4]diazepine-6,1′-cyclopropan]-4(5H)-one] |
| 166 to 178 °C | < 100 nM | [2H]C([2H])([2H])N1C(=O)c2cccn2-c2cc(-c3ccc(F)nc3)ccc2C12CC2 [Example 55, 5-(Methyl-d3)-9-(6-fluoropyridin-3-yl)-spiro[benzo[f]pyrrolo[1,2-a][1,4]diazepine-6,1′-cyclopropan]-4(5H)-one] |
| 88 to 97 °C | 100 to 1000 nM | CN1C(=O)c2cccn2-c2cc(-c3ccc(C(F)(F)F)nc3)ccc2C12CC2 [Example 60, 5-Methyl-9-(6-trifluoromethylpyridin-3-yl)-spiro[benzo[f]pyrrolo[1,2-a][1,4]diazepine-6,1′-cyclopropan]-4(5H)-one] |
| 138 to 142 °C | < 100 nM | [2H]C([2H])([2H])N1C(=O)c2cccn2-c2cc(-c3ccc(F)cn3)ccc2C12CC2 [Example 64, 5-(Methyl-d3)-9-(5-fluoropyridin-2-yl)-spiro[benzo[f]pyrrolo[1,2-a][1,4]diazepine-6,1′-cyclopropan]-4(5H)-one] |
| 102 to 118 °C | > 1000 nM | CN1C(=O)c2cccn2-c2cc(-c3ncccc3F)ccc2C12CC2 [Example 66, 5-Methyl-9-(3-fluoropyridin-2-yl)-spiro[benzo[f]pyrrolo[1,2-a][1,4]diazepine-6,1′-cyclopropan]-4(5H)-one] |
| 106 to 117 °C | 100 to 1000 nM | CN1C(=O)c2cccn2-c2cc(-c3cccc(F)n3)ccc2C12CC2 [Example 67, 5-Methyl-9-(6-fluoropyridin-2-yl)-spiro[benzo[f]pyrrolo[1,2-a][1,4]diazepine-6,1′-cyclopropan]-4(5H)-one] |
| 183 to 197 °C | > 1000 nM | CN1C(=O)c2cccn2-c2cc(-c3cc[nH]c(=O)c3)ccc2C12CC2 [Example 68, 5-Methyl-9-(2-hydroxypyridin-4-yl)-spiro[benzo[f]pyrrolo[1,2-a][1,4]diazepine-6,1′-cyclopropan]-4(5H)-one] |
| > 250 °C | – | CN1C(=O)c2cc(C(=O)O)cn2-c2cc(-c3ccc(F)nc3)ccc2C12CC2 [Example 177, 5-Methyl-9-(6-fluoro-pyridin-3-yl)-4-oxo-4,5-dihydrospiro[benzo[f]pyrrolo[1,2-a][1,4]diazepine-6,1′-cyclopropane]-2-carboxylic acid] |
| > 250 °C | – | [2H]C([2H])([2H])N1C(=O)c2cc(C(=O)O)cn2-c2cc(-c3ccc(F)nc3)ccc2C12CC2 [Example 178, 5-(Methyl-d3)-9-(6-fluoro-pyridin-3-yl)-4-oxo-4,5-dihydrospiro[benzo[f]pyrrolo[1,2-a][1,4]diazepine-6,1′-cyclopropane]-2-carboxylic acid] |

Reference: US11008323B2, “Substituted tricyclic 1,4-benzodiazepinone derivatives as allosteric modulators of group II metabotropic glutamate receptors” (Domain Therapeutics, priority 2015, dated 2021)
